# Where a name gives a salt, the structure may show the parent alone.
# Key:
# [1] = prior art compounds, cited from earlier work
# in vivo = assay: in vivo
# From the text: [formula] a=ethanolamine salt of 1-hydroxy-4,6-dimethyl-2-pyridone b=zinc salt of 1-hydroxy-4,6-dimethyl-2-pyridone c=zinc salt of 1-hydroxy-4-methyl-6-(2,4,4-trimethyl-pentyl)2-pyridone d=ethanolamine salt of 1-hydroxy-4-methyl-6-cyclohexyl-2-pyridone, administered in starch mucilage e=zinc salt of 1-hydroxy-4-methyl-6-cyclohexyl-2-pyridoneand [formula]
# dandruff = conditions: half-side washing repeated over several weeks at determined intervals
# skin = conditions: J. Soc. Cosmet. Chem. 23 (1972), pages 100, 112; cited from earlier work
structure (smiles),measurement,setting,value
On1ccccc1=S [1-hydroxy-2-pyridine-thione],stability to heat,[1],sensitive to heat
same,stability to light,[1],not stable to light
"Cc1cc(C)n(O)c(=O)c1 [a, ethanolamine salt of 1-hydroxy-4,6-dimethyl-2-pyridone]",LD50,in vivo; in vivo,> 4480 mg/kg
"Cc1cc(C)n([O-])c(=O)c1.Cc1cc(C)n([O-])c(=O)c1.[Zn+2] [b, zinc salt of 1-hydroxy-4,6-dimethyl-2-pyridone]",LD50,in vivo; species and route not given,more than 6400 mg/kg
"Cc1cc(CC(C)CC(C)(C)C)n([O-])c(=O)c1.Cc1cc(CC(C)CC(C)(C)C)n([O-])c(=O)c1.[Zn+2] (stereo not drawn) [c, zinc salt of 1-hydroxy-4-methyl-6-(2,4,4-trimethyl-pentyl)2-pyridone]",LD50,in vivo; species and route not given,more than 6400 mg/kg
"Cc1cc(C2CCCCC2)n(O)c(=O)c1 [d, ethanolamine salt of 1-hydroxy-4-methyl-6-cyclohexyl-2-pyridone]",LD50,in vivo; in vivo,5500 mg/kg
"Cc1cc(C2CCCCC2)n([O-])c(=O)c1.Cc1cc(C2CCCCC2)n([O-])c(=O)c1.[Zn+2] [e, zinc salt of 1-hydroxy-4-methyl-6-cyclohexyl-2-pyridone]",LD50,in vivo; species and route not given,more than 6400 mg/kg
"[O-]n1ccccc1=S.[O-]n1ccccc1=S.[Zn+2] [g, zinc salt of 1-hydroxy-2-pyridine-thione]",LD50,in vivo; species and route not given,700 mg/kg
same,removal of dandruff after standardized washing,dandruff,dandruff still showed in many cases
same,sensitivity to oxidation,"[1]; mild oxidizing agents form 2,2'-dithio-bis(pyridine-1-oxide)",sensitive to oxidation
On1ccccc1=S.[Na] [sodium-1-hydroxy-2-pyridine-thione],stability to hydrolysis,[1],not stable to hydrolysis
same,dermal toxicity,skin,considerable dermal toxicity

# Reference: patent US4185106A, “Pyridones as antidandruff agents” (Hoechst Aktiengesellschaft, priority 1972, dated 1980)
